In the METLIN SMRT retention time set (Domingo-Almenara et al. 2019) one finds RP-LC retention time data, which are given here for 58 molecules.

The data set can be described thus: gradient 5% acetonitrile 3 min, to 50% in 2 min, to 85% in 15 min, held 3 min, 100 µL/min. The conditions noted are these: column: Zorbax Extend-C18 2.1 x 50 mm; eluents: water / acetonitrile, 0.1% formic acid. In outline: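 Pure standards were analyzed in mixtures of ~100 molecules using HPLC coupled to a quadrupole time-of-flight mass spectrometer, in both positive and negative ionization mode. Separation used a Zorbax Extend-C18 column (2.1 × 50 mm, 1.8 μm) at 100 μL/min, with water and acetonitrile each containing 0.1% formic acid. Dead and dwell volumes were 40 μL and 900 μL, and data were collected over 3 months. Retention time was read from computationally picked adduct peaks, each inspected manually.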
As for `Fc1ccc(C2Cn3nnc(-c4nc(-c5ccccc5Cl)no4)c3CO2)cc1` (stereo not drawn), the RP-LC retention time amounted to 1170 s.
The same measure for `Cc1noc([C@@H]2CC(F)(F)CN2S(=O)(=O)c2cccc(F)c2)n1`: 891 s.
For `CCCNC(=O)C1CCN(c2ccc(SCC(=O)Nc3ccc(C)cc3Cl)nn2)CC1`, the RP-LC retention time was found to be 1160 s.
The figure for `Cc1cc(C(F)(F)F)nn1CC(=O)NCC12CCC=C1N(C)C(=O)CC2` (stereo not drawn) is 739 s; for `c1ccc(-c2nc3nccc(-c4ccncc4)n3n2)cc1` it is 699 s; for `O=C(Cc1ccc(NS(=O)(=O)c2ccc3c(c2)OCCO3)cc1)NC1CC1` it is 678 s.
The molecule `Cc1ccc(N2C=C(C(=O)N3CCOCC3)S(=O)(=O)c3ccc(F)cc32)cc1C` yielded an RP-LC retention time of 887 s.
The same measure for `CC(C)Oc1ccc(CNC(=O)C2CCN(S(=O)(=O)c3cn(C(C)C)cn3)CC2)cc1`: 802 s; for `O=C(NCc1ccco1)c1coc(NC(=O)C2CC2)n1`: 600 s; for `CC(C)NC(=O)N1CCCC(c2cccc(C(=O)NCCN3CCCC3)c2)C1` (stereo not drawn): 862 s.
On to `CCCCC(=O)Nc1nnc(SCc2nnc(-c3ccc4c(c3)OCO4)o2)s1`, for which the RP-LC retention time amounted to 859 s.
The same measure for `Cc1ccc(-n2cc3c(c(C(=O)Nc4cccnc4)c2=O)CC(C)(C)CC3=O)cc1`: 734 s; for `Cc1c(-c2ccnc(N3CCC(C)CC3)n2)cnc2nc(-c3ccccc3)nn12`: 1320 s.
Molecule `COc1cccc(CNC(=O)C2(C)CCCN(C(=O)Nc3ccccc3Br)C2)c1` (stereo not drawn) gave an RP-LC retention time of 942 s.
The same measure for `COc1ccccc1-c1nnc(-c2ccc(C)c(S(=O)(=O)N3CCCCCC3)c2)o1`: 1100 s; for `Cc1cccc(NC(=O)N2CCC(N3CCN(Cc4ccccc4)C(=O)C3=O)CC2)c1C`: 730 s; for `Cc1cc2c(cc1S(=O)(=O)NC1CC1)N(C(=O)C1CCC1)CC2`: 844 s.
The molecule `COc1c(C)cc(S(=O)(=O)NC2CC(C)(C)NC(C)(C)C2)cc1C` yielded an RP-LC retention time of 575 s.
The same measure for `Cc1c(C(=O)Nc2nccs2)nnn1-c1ccc2noc(-c3ccc(Cl)cc3)c2c1`: 1020 s.
Consider `COc1ccc(-c2ncc3c(n2)CCN(C(=O)Nc2cccc(C(C)=O)c2)C3)cc1`, for which the RP-LC retention time was determined as 810 s.
The figure for `COc1cc(NC(=O)NC2CCN(c3nc4ccccc4n(C)c3=O)CC2)cc(OC)c1` is 801 s; for `CC(C)N(CC#CCNC(=O)Cc1ccccc1Cl)C(C)C` it is 566 s; for `COc1ccc(C(=O)Nc2nc(CC(=O)Nc3ccc4c(c3)OCCO4)cs2)cc1` it is 754 s.
The same measure for `CCOc1ccc(CNC(=O)C2CCN(Cc3cn(CC)c4ccc(OC)cc34)CC2)cc1`: 723 s; for `Cc1cc(SCC(=O)N2CCN(c3ccccc3)CC2)nc(-c2ccc(F)cc2)n1`: 1160 s; for `CCOc1ccc(CCNC(=O)c2nc(CCS(=O)(=O)c3ccc(F)cc3)no2)cc1OCC`: 952 s.
Turning to `COc1ccc(C(=O)N2CCn3c(nnc3C(C)C)C2)c(OC)n1`, the RP-LC retention time came out at 588 s.
The figure for `O=C(Nc1ccc(S(=O)(=O)N2CCOCC2)cc1)c1ccc(Br)s1` is 858 s; for `O=C1CC(c2noc(-c3ccc(Cl)cc3)n2)CN1c1ccc(F)cc1` (stereo not drawn) it is 1030 s; for `COC(=O)c1cnn(-c2ccc(C(=O)NC3CCCC3)cc2)c1N` it is 716 s.
The same measure for `COc1ccc(N2CCN(Cc3nc(-c4ccc(N5CCOCC5)nc4)no3)CC2)cc1`: 688 s.
The same measure for `O=C(Cn1c(=O)oc2ccccc21)N1CC(n2cc(COCc3ccccc3)nn2)C1`: 773 s.
`COc1cc(C2c3c(-c4ccc(C)cc4)n[nH]c3C(=O)N2C)ccc1O` (stereo not drawn): the RP-LC retention time was determined as 692 s.
The same measure for `COc1ccc(Cl)cc1C(=O)NC1CCN(c2cc(-c3ccccc3)[nH]n2)C1` (stereo not drawn): 784 s; for `O=C(C1CCCO1)N1CCC(OCc2nc(-c3ccncc3)no2)CC1` (stereo not drawn): 585 s; for `O=C(NCc1ccco1)C(=O)NCC1OCCN1S(=O)(=O)c1ccc([N+](=O)[O-])cc1` (stereo not drawn): 745 s.
The figure for `O=S(=O)(c1cccc2nsnc12)N1CCCC(Cc2noc(C3CC3)n2)C1` (stereo not drawn) is 923 s.
The same measure for `COCc1nc(-c2ccc(OC3CCN(C(=O)C4(c5ccccc5)CC4)C3)cc2)no1` (stereo not drawn): 932 s; for `COc1ccc(NC(=O)C2CCN(S(=O)(=O)c3c(C)nn(-c4ccccc4)c3C)CC2)cc1OC`: 859 s; for `Cc1oc(-c2[nH]ncc2C(=O)N(C)C)cc1S(=O)(=O)Nc1ccccc1`: 609 s.
For the molecule `CCCNC(=O)Cn1nc2cc(-c3ccc(OC)cc3)nc(C)n2c1=O`, the RP-LC retention time worked out at 633 s.
The same measure for `Cc1nc2cccnc2n1C1CCN(C(=O)Nc2ccc(Cl)cc2)CC1`: 659 s; for `Cc1nnc(N2CCCC(C(=O)N3CCCCC3)C2)c2nn(-c3ccccc3)c(C)c12` (stereo not drawn): 686 s.
The same measure for `COc1ccc(NS(=O)(=O)c2cccc(-c3nc(-c4ccccc4)no3)c2)cc1OC`: 1060 s.
The same measure for `O=C(Cc1csc2nc(-c3ccccc3)cn12)NCCc1ccc(Cl)cc1`: 806 s; for `CCNC(=O)C1CCCN(c2nc3ncn(CC(=O)Nc4ccc(Cl)cc4F)c(=O)c3s2)C1` (stereo not drawn): 709 s; for `COc1ccc(-c2c(C)noc2NC(C)=O)cc1S(=O)(=O)Nc1c(C)cc(C)cc1C`: 838 s.
With `O=C(c1cccnc1)c1cc(-c2ccccn2)c(=O)n2ccccc12`, the RP-LC retention time came out at 630 s.
The figure for `COC(=O)c1ccc2c(=O)n(-c3ccc(Cl)cc3)c(N3CCOCC3)nc2c1` is 975 s; for `CCS(=O)(=O)c1nc2ccc(NS(=O)(=O)c3cc(Cl)ccc3OC)cc2s1` it is 914 s.
The figure for `C=C(C)Cn1c(COc2ccccc2)nc2ccccc21` is 718 s; for `COC(=O)c1cccc(NC(=O)C2CCN(c3cc(N4CCCC4)ncn3)CC2)c1` it is 658 s; for `CN1C(=O)c2cc(C(=O)NCCc3ccccc3)nn2CC1(C)C(=O)NC1CCCCCC1` (stereo not drawn) it is 795 s.
In turn, `Cc1ccsc1C(=O)N1CCC2(CC1)NC(=O)N(Cc1ccccc1Cl)C2=O` returned an RP-LC retention time of 847 s.
The same measure for `CCC(=O)NCc1nc2c(n1CC)CN(S(=O)(=O)c1ccc(C)c(C)c1)CC2`: 583 s.
The same measure for `Cc1cc2n(n1)CCCN2C(=O)CCC(=O)N1CCN(Cc2ccc3c(c2)OCO3)CC1`: 577 s; for `COc1ccc(NC(=O)CN2C(=O)NC3(CCCCC3)C2=O)cc1`: 723 s.
The same measure for `Cc1cc(C)c2c(=O)n(Cc3nc(-c4ccccc4)oc3C)c(=O)n(C)c2n1`: 1160 s.
